The values that follow come from US10266526B2, “Substituted 1,2,3-triazoles as SMYD inhibitors for treating cancer” (EPIZYME, INC., priority 2014, dated 2019).

Assay [1] concerns the target T1, SMYD3 (Homo sapiens (Human), UniProt Q9H7B4). The assay is described as follows: SMYD3 biochemical assay (SMYD3 enzyme assay on MEKK2 protein substrate, 3H-SAM scintillation proximity assay). Particulars: read-out: SMYD3 Biochem IC50. Put shortly: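 Detection used scintillation proximity beads to capture ³H-methylated GST-MEKK2 after quench with 100 uM final cold SAM. The reaction was started by SAM/MEKK2 addition after a 30 min RT compound–enzyme preincubation. Enzyme was tag-free full-length human SMYD3 from E. coli, in buffer of 25 mM Tris-Cl pH 8.0, 1 mM TCEP, 0.005% BSG, 0.005% Tween 20.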
(In general: SPA uses beads or plates that emit light when radiolabelled molecules are held near them.)

Assay [2] concerns the target T1, SMYD3. The assay is described as follows: SMYD3 cell assay (Trimethyl-MEKK2 In-Cell Western in 293T/17 cells transfected with MEKK2-flag and SMYD3). It counts as cell-based. The source says:
Trimethyl-MEKK2-in-Cell Western Assay
MEM/Glutamax medium, Optimem Reduced Serum medium, penicillin-streptomycin, 0.05% trypsin and 1×D-PBS were purchased from Life Technologies, Grand Island, N.Y., USA. PBS-10× was purchased from Ambion, Life Technologies, Grand Island, N.Y., USA. PBS with Tween 20 (PBST (10×)) was purchased from KPL, Gaithersburg, Md., USA. Tet System FBS-approved FBS US Source was purchased from Clontech, Mountain View, Calif., USA. Odyssey blocking buffer, 800CW goat anti-rabbit IgG (H+L) antibody, 680CW Goat anti-mouse IgG (H+L) and Licor Odyssey infrared scanner were purchased from Licor Biosciences, Lincoln, Nebr., USA. Tri-methyl-Lysine [A260]-MEKK2 antibody, MEKK2 and SMYD3 plasmids were made at Epizyme. Anti-flag monoclonal mouse antibody was purchased from Sigma, St. Louis, Mo., USA. Methanol was purchased from VWR, Franklin, Mass., USA. 10% Tween 20 was purchased from KPL, Inc., Gaithersburg, Md., USA. Fugene was purchased from Promega, Madison, Wis., USA. The Biotek ELx405 was purchased from BioTek, Winooski, Vt., USA. The multidrop combi was purchased from Thermo Scientific, Waltham, Mass., USA.
Cell Treatment, in Cell Western (ICW) for Detection of Trimethyl-Lysine-MEKK2 and MEKK2.
Plasmids were prepared for delivery to cells by first mixing 1350 μL Opti-MEM with Fugene (81 μL) in a sterile Eppendorf and incubated for five minutes at room temperature (RT). […] Entire volume of Opti-MEM/Fugene mixture was then added to a microfuge tube containing DNA plasmid, mixed and then incubated ×15 minutes at RT. […] Medium was then removed, and cells were washed once with PBS in the flask. Trypsin 0.05% (3 mL) was added and cells incubated for three minutes. Room temperature MEM+10% Tet system FBS was added and cells were mixed gently, and counted using the Vi-cell. Cells were seeded at 100,000 cells/mL in 50 μL MEM/10% Tet FBS/Pen/Strep to a 384 well black/clear poly-D-lysine coated plate containing test agent diluted in DMSO. The final top concentration of test compound was 40 μM. […] Plates were incubated ×30 minutes at RT in low-airflow area, followed by incubation at 37° C. under 5% CO2 for 24 hours. Medium was aspirated from all wells of assay plates prior to fixation and permeabilization with ice cold (−20° C.) methanol (90 μL/well) for ten minutes. Plates were rinsed with PBS three times on BioTek ELx405. PBS was removed with a final aspiration, and Odyssey blocking buffer (50 μL/well) was added to each well and incubated for one hour at RT. Primary antibody solution was prepared (anti-trimethyl-MEKK2 at 1:600 dilution plus mouse anti-flag antibody at 1:10,000 dilution in diluent (Odyssey Blocking buffer+0.1% Tween 20)) and 20 μL per well was dispensed using the Multidrop Combi. Assay plates were then sealed with foil, and incubated overnight at 4° C. Plates were washed five times with PBS-Tween (1×) on Biotek ELx405 and blotted on paper towel to remove excess reagent.
First, the ratio for each well was determined by:
Each plate included fourteen control wells of DMSO only treatment (Minimum Inhibition) as well as fourteen control wells for maximum inhibition (Background). The average of the ratio values for each control type was calculated and used to determine the percent inhibition for each test well in the plate. Reference compound was serially diluted two-fold in DMSO for a total of nine test concentrations, beginning at 40 μM. Percent inhibition was calculated (below).
Non-linear regression curves were generated to calculate the IC50 and dose-response relationship using triplicate wells per concentration of compound.

In the next assay the target is SMYD2 (Homo sapiens (Human), UniProt Q9NRG4). The assay can be described thus: SMYD2 biochemical assay (SMYD2 enzyme assay on peptide substrate, 3H-SAM Flashplate). Particulars: read-out: SMYD2 Biochem IC50; IC50 values are an average of n = 1 to n = 50.
The mark [3] stands for this setting: Table 3A, average of n = 1 to n = 50, read-out: SMYD3 cell IC50.

Bounds are passed on as bounds.

T1 sequence (Q9H7B4 whole entry): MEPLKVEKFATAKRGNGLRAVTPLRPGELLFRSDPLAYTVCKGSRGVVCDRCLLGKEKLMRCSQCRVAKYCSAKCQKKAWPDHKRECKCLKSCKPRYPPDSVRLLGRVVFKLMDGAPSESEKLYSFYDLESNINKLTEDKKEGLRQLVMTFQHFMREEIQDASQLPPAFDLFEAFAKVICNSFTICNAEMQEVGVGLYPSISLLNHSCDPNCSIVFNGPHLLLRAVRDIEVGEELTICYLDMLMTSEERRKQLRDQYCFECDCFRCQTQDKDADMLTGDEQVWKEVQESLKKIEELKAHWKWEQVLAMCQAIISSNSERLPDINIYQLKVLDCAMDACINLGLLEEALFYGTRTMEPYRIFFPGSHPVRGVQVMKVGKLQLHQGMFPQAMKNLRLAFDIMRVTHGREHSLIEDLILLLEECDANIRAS
SMYD2, sequence (Q9NRG4 whole entry): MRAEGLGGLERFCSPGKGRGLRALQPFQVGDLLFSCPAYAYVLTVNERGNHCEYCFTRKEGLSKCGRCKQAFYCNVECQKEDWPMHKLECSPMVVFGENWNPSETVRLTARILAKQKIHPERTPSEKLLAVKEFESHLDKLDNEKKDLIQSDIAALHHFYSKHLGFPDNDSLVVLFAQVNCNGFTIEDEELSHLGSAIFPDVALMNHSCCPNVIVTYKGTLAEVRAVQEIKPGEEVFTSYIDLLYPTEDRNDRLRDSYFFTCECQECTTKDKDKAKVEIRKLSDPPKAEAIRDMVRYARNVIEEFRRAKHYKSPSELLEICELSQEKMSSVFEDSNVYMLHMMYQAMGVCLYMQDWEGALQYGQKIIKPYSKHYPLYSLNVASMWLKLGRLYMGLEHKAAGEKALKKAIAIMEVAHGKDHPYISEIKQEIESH

As to `CC(NC(=O)c1cc2c(cc1Cl)NC(=O)C2)C1CCN(C(=O)[C@H](C)N)CC1` (stereo partly drawn) [Cpd. No. 490, N-(1-(1-((S)-2-aminopropanoyl)piperidin-4-yl)ethyl)-6-chloro-2-oxoindoline-5-carboxamide], the figures for the half-inhibitory concentration (IC50) at SMYD3 [1] and at SMYD3 [2] (read-out: SMYD3 Cell IC50) were 0.43 µM and above 40 µM, respectively.
Regarding `O=C1Cc2cc(C(=O)N[C@H]3C[C@H]4CC[C@@H](C3)N4S(=O)(=O)N3CCC(NCc4ccccc4)CC3)ccc2N1` [Cpd. No. 587, N-[(1R,3r,5S)-8-[4-(benzylamino)piperidine-1-sulfonyl]-8-azabicyclo[3.2.1]octan-3-yl]-2-oxo-2,3-dihydro-1H-indole-5-carboxamide], the IC50 (commonly the concentration that inhibits the measured activity by half) at SMYD3 [1] (Table 3A, average of n = 1 to n = 50) was found to be 0.00198 µM; on SMYD3 [2] (setting [3]), 0.071 µM.
On to `C[C@H]1CC(NC(=O)c2cc3c(cc2Cl)NC(=O)C3)CCN1C(=O)[C@H]1CC[C@H](N)CC1` (stereo partly drawn) [compound 640, N-((2S)-1-((1r,4S)-4-aminocyclohexane-1-carbonyl)-2-methylpiperidin-4-yl)-6-chloro-2-oxoindoline-5-carboxamide], for which the IC50 at SMYD3 [2] (setting [3]) was at least 10 µM.
`CC(c1cc(Cl)ccc1Oc1ccc(F)cc1)N1CC(NC(=O)c2cn(C3CC3)nn2)C1` (centres unmarked) [compound 989, N-(1-(1-(5-chloro-2-(4-fluorophenoxy)phenyl)ethyl)azetidin-3-yl)-1-cyclopropyl-1H-1,2,3-triazole-4-carboxamide]: the IC50 at SMYD2 is above 50 µM.
Same read-out and setting: with `O=C(NC1CN(Cc2cnn(Cc3nccs3)c2)C1)c1cn(C2CC2)nn1` [compound 991, 1-cyclopropyl-N-(1-((1-(thiazol-2-ylmethyl)-1H-pyrazol-4-yl)methyl)azetidin-3-yl)-1H-1,2,3-triazole-4-carboxamide] the figure was 0.76 µM; with `O=C(NC1CN(Cc2ccc(OCc3ccccn3)cc2)C1)c1cn(C2CC2)nn1` [compound 992, 1-cyclopropyl-N-(1-(4-(pyridin-2-ylmethoxy)benzyl)azetidin-3-yl)-1H-1,2,3-triazole-4-carboxamide], 2.7 µM.
Still for that read-out and setting: with `Cc1ccc(Cn2cc(CN3CC(NC(=O)c4cn(C5CC5)nn4)C3)cn2)cc1` [compound 993, 1-cyclopropyl-N-(1-((1-(4-methylbenzyl)-1H-pyrazol-4-yl)methyl)azetidin-3-yl)-1H-1,2,3-triazole-4-carboxamide] the figure was 0.016 µM.
Still for that read-out and setting: the figure for `CC(c1ccc(=O)[nH]c1)N1CC(NC(=O)c2cn(C3CC3)nn2)C1` (centres unmarked) [compound 994, 1-cyclopropyl-N-(1-(1-(6-oxo-1,6-dihydropyridin-3-yl)ethyl)azetidin-3-yl)-1H-1,2,3-triazole-4-carboxamide] is 5.4 µM.
Regarding `COc1ccccc1Cn1cc(CN2CC(NC(=O)c3cn(C4CC4)nn3)C2)cn1` [compound 995, 1-cyclopropyl-N-(1-((1-(2-methoxybenzyl)-1H-pyrazol-4-yl)methyl)azetidin-3-yl)-1H-1,2,3-triazole-4-carboxamide], at SMYD2, the IC50 was 1.3 µM.
Take `O=C(NC1CN(Cc2ccc(OCc3cscn3)cc2)C1)c1cn(C2CC2)nn1` [compound 999, 1-cyclopropyl-N-(1-(4-(thiazol-4-ylmethoxy)benzyl)azetidin-3-yl)-1H-1,2,3-triazole-4-carboxamide]: the concentration for half-maximal inhibition (IC50) at SMYD2 was 1.1 µM.
The same measure, in the same setting: with `CC(NC(=O)c1cn(C2CC2)nn1)C1CCCCN1` (centres unmarked) [compound 1000, 1-cyclopropyl-N-(1-(piperidin-2-yl)ethyl)-1H-1,2,3-triazole-4-carboxamide] the figure was above 50 µM; with `O=C(NC1CN(Cc2cnn(CC3CCC3)c2)C1)c1cn(C2CC2)nn1` [compound 1001, N-(1-((1-(cyclobutylmethyl)-1H-pyrazol-4-yl)methyl)azetidin-3-yl)-1-cyclopropyl-1H-1,2,3-triazole-4-carboxamide], 1.4 µM; with `COc1ccc(C(C)N2CC(NC(=O)c3cn(C4CC4)nn3)C2)c(Cl)c1` (centres unmarked) [compound 1002, N-(1-(1-(2-chloro-4-methoxyphenyl)ethyl)azetidin-3-yl)-1-cyclopropyl-1H-1,2,3-triazole-4-carboxamide], 0.088 µM.
Same read-out and setting: with `CC(NC(=O)c1cc(C2CC2)cnn1)C1CCCCN1` (centres unmarked) [compound 1003, 5-cyclopropyl-N-(1-(piperidin-2-yl)ethyl)pyridazine-3-carboxamide] the figure was 19 µM.
Same read-out and setting: with `COc1cccc(C(C)N2CC(NC(=O)c3cc(C4CC4)ccn3)C2)c1OC` (centres unmarked) [compound 1005, 4-cyclopropyl-N-(1-(1-(2,3-dimethoxyphenyl)ethyl)azetidin-3-yl)picolinamide] the figure was 0.13 µM; with `O=C(NC1CN(Cc2cnn(CC3CC3)c2)C1)c1cn(C2CC2)nn1` [compound 1006, 1-cyclopropyl-N-(1-((1-(cyclopropylmethyl)-1H-pyrazol-4-yl)methyl)azetidin-3-yl)-1H-1,2,3-triazole-4-carboxamide], 1.7 µM; with `O=C(NC1CN(Cc2cnn(Cc3ccccc3)c2)C1)c1nnc(C2CC2)s1` [compound 1007, N-(1-((1-benzyl-1H-pyrazol-4-yl)methyl)azetidin-3-yl)-5-cyclopropyl-1,3,4-thiadiazole-2-carboxamide], 0.072 µM.
As to `CC(c1cccc(OCCN)c1Cl)N1CC(NC(=O)c2cn(C3CC3)nn2)C1` (centres unmarked) [compound 1009, N-(1-(1-(3-(2-aminoethoxy)-2-chlorophenyl)ethyl)azetidin-3-yl)-1-cyclopropyl-1H-1,2,3-triazole-4-carboxamide], at SMYD2, the IC50 was 5.7 µM.
Same read-out and setting: the figure for `CC(=O)Nc1ccc(COc2ccc(C(C)N3CC(NC(=O)c4cn(C5CC5)nn4)C3)cc2)cc1` (centres unmarked) [compound 1020, N-(1-(1-(4-((4-acetamidobenzyl)oxy)phenyl)ethyl)azetidin-3-yl)-1-cyclopropyl-1H-1,2,3-triazole-4-carboxamide] is 0.95 µM; for `O=C(NC1CN(Cc2cnn(Cc3ccccc3)c2)C1)c1nnc(C2CC2)o1` [compound 1021, N-(1-((1-benzyl-1H-pyrazol-4-yl)methyl)azetidin-3-yl)-5-cyclopropyl-1,3,4-oxadiazole-2-carboxamide] it is 0.065 µM.
Same read-out and setting: the figure for `O=C(NC1CN(Cc2cnn(Cc3ccccc3)c2)C1)c1cn(C2CC2)cn1` [compound 1022, N-(1-((1-benzyl-1H-pyrazol-4-yl)methyl)azetidin-3-yl)-1-cyclopropyl-1H-imidazole-4-carboxamide] is 0.073 µM; for `CN1[C@@H]2CC[C@H]1C[C@H](NC(=O)c1cc(C3CC3)cnn1)C2` [compound 1023, 5-cyclopropyl-N-((1R,3s,5S)-8-methyl-8-azabicyclo[3.2.1]octan-3-yl)pyridazine-3-carboxamide] it is 6.3 µM; for `CN1[C@@H]2CC[C@H]1C[C@@H](NC(=O)c1cc(C3CC3)cnn1)C2` [compound 1024, 5-cyclopropyl-N-((1R,3r,5S)-8-methyl-8-azabicyclo[3.2.1]octan-3-yl)pyridazine-3-carboxamide] it is above 50 µM.
The same measure, in the same setting: the figure for `Cn1cc(COc2ccc(CN3CC(NC(=O)c4cn(C5CC5)nn4)C3)cc2)cn1` [compound 1025, 1-cyclopropyl-N-(1-(4-((1-methyl-1H-pyrazol-4-yl)methoxy)benzyl)azetidin-3-yl)-1H-1,2,3-triazole-4-carboxamide] is 1.2 µM.
